Source: the NIST ThermoML archive (doi:10.1021/je400659p)

Tests used:
[1] = refractive index (Na D-line) (dimensionless); xn = mol fraction of the nth substance listed; conditions: 101 kPa, Liquid, Standard Abbe refractometry
[2] = xn = mol fraction of the nth substance listed; conditions: 101 kPa, Liquid, Vibrating tube method

C1COCCO1 [1,4-dioxane] + CCCCn1cc[n+](C)c1.F[B-](F)(F)F
Conditions | mass density, [2] [kg/m3] | refractive index, [1]
293.15 K, x2 = 0 | 1033.57 | –
293.15 K, x2 = 0.2559 | 1118.75 | –
293.15 K, x2 = 0.3956 | 1146.31 | –
293.15 K, x2 = 0.4988 | 1161.37 | –
293.15 K, x2 = 0.6 | 1173.1 | –
293.15 K, x2 = 0.7021 | 1183.04 | –
293.15 K, x2 = 0.8993 | 1198.09 | –
298.15 K, x2 = 0 | 1027.92 | 1.4205
298.15 K, x2 = 0.2559 | 1114.31 | 1.4253
298.15 K, x2 = 0.3956 | 1142.23 | 1.4258
298.15 K, x2 = 0.4988 | 1157.44 | 1.4256
298.15 K, x2 = 0.6 | 1169.26 | 1.4249
298.15 K, x2 = 0.7021 | 1179.3 | 1.4241
298.15 K, x2 = 0.8993 | 1194.53 | 1.4222
303.15 K, x2 = 0 | 1022.27 | 1.4171
303.15 K, x2 = 0.2559 | 1109.87 | 1.4236
303.15 K, x2 = 0.3956 | 1138.14 | 1.4244
303.15 K, x2 = 0.4988 | 1153.51 | 1.4242
303.15 K, x2 = 0.6 | 1165.45 | 1.4235
303.15 K, x2 = 0.7021 | 1175.57 | 1.4225
303.15 K, x2 = 0.8993 | 1190.95 | 1.4207
313.15 K, x2 = 0 | 1010.91 | 1.4112
313.15 K, x2 = 0.2559 | 1101.06 | 1.4196
313.15 K, x2 = 0.3956 | 1130.01 | 1.421
313.15 K, x2 = 0.4988 | 1145.69 | 1.4211
313.15 K, x2 = 0.6 | 1157.84 | 1.4206
313.15 K, x2 = 0.7021 | 1168.15 | 1.4199
313.15 K, x2 = 0.8993 | 1183.8 | 1.4183
323.15 K, x2 = 0 | 999.49 | 1.4063
323.15 K, x2 = 0.2559 | 1092.28 | 1.4161
323.15 K, x2 = 0.3956 | 1121.91 | 1.4179
323.15 K, x2 = 0.4988 | 1137.92 | 1.4181
323.15 K, x2 = 0.6 | 1150.29 | 1.4177
323.15 K, x2 = 0.7021 | 1160.77 | 1.4169
323.15 K, x2 = 0.8993 | 1176.68 | 1.4155
333.15 K, x2 = 0 | 987.97 | –
333.15 K, x2 = 0.2559 | 1083.47 | –
333.15 K, x2 = 0.3956 | 1113.85 | –
333.15 K, x2 = 0.4988 | 1130.18 | –
333.15 K, x2 = 0.6 | 1142.79 | –
333.15 K, x2 = 0.7021 | 1153.44 | –
333.15 K, x2 = 0.8993 | 1169.6 | –
343.15 K, x2 = 0 | 976.37 | –
343.15 K, x2 = 0.2559 | 1074.65 | –
343.15 K, x2 = 0.3956 | 1105.8 | –
343.15 K, x2 = 0.4988 | 1122.47 | –
343.15 K, x2 = 0.6 | 1135.31 | –
343.15 K, x2 = 0.7021 | 1146.14 | –
343.15 K, x2 = 0.8993 | 1162.53 | –
353.15 K, x2 = 0 | 964.63 | –
353.15 K, x2 = 0.2559 | 1065.8 | –
353.15 K, x2 = 0.3956 | 1097.77 | –
353.15 K, x2 = 0.4988 | 1114.8 | –
353.15 K, x2 = 0.6 | 1127.87 | –
353.15 K, x2 = 0.7021 | 1138.89 | –
353.15 K, x2 = 0.8993 | 1155.57 | –

CCn1cc[n+](C)c1.F[B-](F)(F)F [1-ethyl-3-methylimidazolium tetrafluoroborate] + C1COCCO1
Conditions | mass density, [2] [kg/m3] | refractive index, [1]
293.15 K, x1 = 0.3292 | 1171.62 | –
293.15 K, x1 = 0.4547 | 1203.47 | –
293.15 K, x1 = 0.4923 | 1211.84 | –
293.15 K, x1 = 0.6409 | 1240.74 | –
293.15 K, x1 = 0.6838 | 1246.89 | –
293.15 K, x1 = 0.7851 | 1263.5 | –
293.15 K, x1 = 0.8336 | 1270.18 | –
293.15 K, x1 = 1 | 1290.63 | –
298.15 K, x1 = 0.3292 | 1167.26 | 1.4214
298.15 K, x1 = 0.4547 | 1199.31 | 1.4197
298.15 K, x1 = 0.4923 | 1207.73 | 1.4191
298.15 K, x1 = 0.6409 | 1236.77 | 1.4165
298.15 K, x1 = 0.6838 | 1242.94 | 1.4157
298.15 K, x1 = 0.7851 | 1259.61 | 1.414
298.15 K, x1 = 0.8336 | 1266.32 | 1.4132
298.15 K, x1 = 1 | 1286.82 | 1.4111
303.15 K, x1 = 0.3292 | 1163 | 1.4195
303.15 K, x1 = 0.4547 | 1195.16 | 1.4181
303.15 K, x1 = 0.4923 | 1203.63 | 1.4176
303.15 K, x1 = 0.6409 | 1232.79 | 1.415
303.15 K, x1 = 0.6838 | 1238.89 | 1.4143
303.15 K, x1 = 0.7851 | 1255.72 | 1.4125
303.15 K, x1 = 0.8336 | 1262.45 | 1.4118
303.15 K, x1 = 1 | 1283.02 | 1.41
313.15 K, x1 = 0.3292 | 1154.24 | 1.4163
313.15 K, x1 = 0.4547 | 1186.92 | 1.4154
313.15 K, x1 = 0.4923 | 1195.48 | 1.4149
313.15 K, x1 = 0.6409 | 1224.92 | 1.4126
313.15 K, x1 = 0.6838 | 1231.17 | 1.4118
313.15 K, x1 = 0.7851 | 1248.01 | 1.41
313.15 K, x1 = 0.8336 | 1254.79 | 1.4092
313.15 K, x1 = 1 | 1275.45 | 1.4073
323.15 K, x1 = 0.3292 | 1145.14 | 1.4129
323.15 K, x1 = 0.4547 | 1178.43 | 1.4123
323.15 K, x1 = 0.4923 | 1187.38 | 1.4119
323.15 K, x1 = 0.6409 | 1217.1 | 1.4097
323.15 K, x1 = 0.6838 | 1223.4 | 1.409
323.15 K, x1 = 0.7851 | 1240.36 | 1.4074
323.15 K, x1 = 0.8336 | 1247.18 | 1.4067
323.15 K, x1 = 1 | 1267.97 | 1.4051
333.15 K, x1 = 0.3292 | 1136.98 | –
333.15 K, x1 = 0.4547 | 1170.56 | –
333.15 K, x1 = 0.4923 | 1179.33 | –
333.15 K, x1 = 0.6409 | 1209.33 | –
333.15 K, x1 = 0.6838 | 1215.68 | –
333.15 K, x1 = 0.7851 | 1232.77 | –
333.15 K, x1 = 0.8336 | 1239.64 | –
333.15 K, x1 = 1 | 1260.55 | –
343.15 K, x1 = 0.3292 | 1128.37 | –
343.15 K, x1 = 0.4547 | 1162.44 | –
343.15 K, x1 = 0.4923 | 1171.31 | –
343.15 K, x1 = 0.6409 | 1201.62 | –
343.15 K, x1 = 0.6838 | 1208.02 | –
343.15 K, x1 = 0.7851 | 1225.24 | –
343.15 K, x1 = 0.8336 | 1232.15 | –
343.15 K, x1 = 1 | 1253.18 | –
353.15 K, x1 = 0.3292 | 1120.41 | –
353.15 K, x1 = 0.4547 | 1154.35 | –
353.15 K, x1 = 0.4923 | 1163.32 | –
353.15 K, x1 = 0.6409 | 1193.95 | –
353.15 K, x1 = 0.6838 | 1200.41 | –
353.15 K, x1 = 0.7851 | 1217.75 | –
353.15 K, x1 = 0.8336 | 1225.41 | –
353.15 K, x1 = 1 | 1245.87 | –
